Measurements as given in patent publication US10448639B2, “Fungicidal pyrazoles” (FMC CORPORATION, priority 2009, dated 2019).
Like-named read-outs stand apart in the source and are kept apart here. Marks after values point to notes of the source that are not given here.

Legend:
[1] = test system: Puccinia recondita f. sp. tritici; test: Test I: wheat leaf rust, preventive spray on wheat seedlings, visual disease rating; conditions: for Test I disease control rating: sprayed the day before inoculation, 0 = no disease control relative to controls; for Test I disease control rating / Test I rating (% disease control): 100 = 100% disease control; for pest or weed control at 200 µg/mL: 192 h
Botrytis cinerea = test: Test B: tomato Botrytis, preventive spray on tomato seedlings, visual disease rating; conditions: for Test B disease control rating / Test B rating (% disease control): 100 = 100% disease control; for Test B disease control rating: 0 = no disease control relative to controls; for pest or weed control at 200 µg/mL: Botrytis cinerea, in Solanum lycopersicum, 120 h
Alternaria solani = test: Test C: tomato early blight, preventive spray on tomato seedlings, visual disease rating; conditions: for Test C disease control rating / Test C rating (% disease control): 100 = 100% disease control; for Test C disease control rating: 0 = no disease control relative to controls; for pest or weed control at 200 µg/mL: Alternaria solani, in Solanum lycopersicum, 168 h
[2] = test system: Erysiphe graminis f sp. tritici; test: Test J: wheat powdery mildew, preventive spray on wheat seedlings, visual disease rating; conditions: for Test J disease control rating: sprayed the day before inoculation, 0 = no disease control relative to controls; for Test J disease control rating / Test J rating (% disease control): 100 = 100% disease control; for pest or weed control at 200 µg/mL: Blumeria graminis, in Triticum aestivum, 192 h
Septoria nodorum = test: Test F: Septoria glume blotch, preventive spray on wheat seedlings, visual disease rating; conditions: for Test F disease control rating / Test F rating (% disease control): 100 = 100% disease control; for Test F disease control rating: 0 = no disease control relative to controls; for pest or weed control at 200 µg/mL: Parastagonospora nodorum, in Triticum aestivum, 192 h
[3] = test system: Puccinia recondita f. sp. tritici; test: Test H: wheat leaf rust, curative spray on inoculated wheat seedlings, visual disease rating; conditions: for Test H disease control rating: sprayed after inoculation, 0 = no disease control relative to controls; for Test H disease control rating / Test H rating (% disease control): 100 = 100% disease control; for pest or weed control at 200 µg/mL: 144 h; for Test H rating (% disease control): 0 = no control relative to controls
Septoria tritici = test: Test G: wheat leaf blotch, preventive spray on wheat seedlings, visual disease rating; conditions: wheat leaf blotch, preventive spray; 100 = 100% disease control, 0 = no control
[4] = read-out: Test I disease control rating
[5] = read-out: Test B disease control rating
[6] = read-out: Test C disease control rating
[7] = read-out: Test J disease control rating
[8] = read-out: Test F disease control rating
[9] = read-out: Test H disease control rating
[10] = wheat leaf rust, preventive spray, 0 = no control
[11] = tomato Botrytis, preventive spray, 0 = no control
[12] = tomato early blight, preventive spray, 0 = no control
[13] = wheat powdery mildew, preventive spray, 0 = no control
[14] = Septoria glume blotch on wheat, preventive spray, 0 = no control
[15] = wheat leaf rust, preventive, 0 = no control relative to controls
[16] = tomato Botrytis, 0 = no control relative to controls
[17] = tomato early blight, 0 = no control relative to controls
[18] = wheat powdery mildew, 0 = no control relative to controls
[19] = Septoria glume blotch, 0 = no control relative to controls

Cc1nn(C)c(C(O)c2ccc(F)cc2)c1-c1ccc(F)cc1Cl (racemic) [compound 350]
Test I disease control rating ([1]; wheat leaf rust): 96%
Test B disease control rating (Botrytis cinerea; tomato Botrytis): 99%
Test C disease control rating (Alternaria solani; tomato early blight): 9%
Test J disease control rating ([2]; wheat powdery mildew): 0%
Test F disease control rating (Septoria nodorum; Septoria glume blotch on wheat): 0%
Test H disease control rating ([3]; wheat leaf rust): 9%

Cc1nn(C)c(C(O)c2c(F)ccc(F)c2F)c1-c1ccc(F)cc1Cl (racemic) [compound 356]
Test I disease control rating ([1]; wheat leaf rust): 100%
Test B disease control rating (Botrytis cinerea; tomato Botrytis): 100%
Test C disease control rating (Alternaria solani; tomato early blight): 0%
Test J disease control rating ([2]; wheat powdery mildew): 0%
Test F disease control rating (Septoria nodorum; Septoria glume blotch on wheat): 0%
Test H disease control rating ([3]; wheat leaf rust): 100%

Cc1nn(C)c(Oc2ccc(C#N)cc2F)c1-c1ccc(F)cc1Br [Compound 284, 4-[[4-(2-bromo-4-fluorophenyl)-1,3-dimethyl-1H-pyrazol-5-yl]oxy]-3-fluorobenzonitrile]
pest or weed control at 200 µg/mL ([1]; read-out: Test I rating (% disease control)): 100%
pest or weed control at 200 µg/mL (Botrytis cinerea; read-out: Test B rating (% disease control)): 99%
pest or weed control at 200 µg/mL (Alternaria solani; read-out: Test C rating (% disease control)): 99%
pest or weed control at 200 µg/mL ([2]; read-out: Test J rating (% disease control)): 100%
pest or weed control at 200 µg/mL (Septoria nodorum; read-out: Test F rating (% disease control)): 100%
pest or weed control at 200 µg/mL ([3]; read-out: Test H rating (% disease control)): 28%

Cc1nn(C)c(Nc2c(F)cc(Cl)cc2F)c1-c1ccc(F)cc1Cl [Compound 286, N-(4-chloro-2,6-difluorophenyl)-4-(2-chloro-4-fluorophenyl)-1,3-dimethyl-1H-pyrazole-5-amine]
Test I rating (% disease control), marked * ([1]; wheat leaf rust, preventive, rating marked with asterisk (*), meaning not given): 100* %
Test B rating (% disease control), marked * (Botrytis cinerea; tomato Botrytis, rating marked with asterisk (*), meaning not given): 98* %
Test C rating (% disease control), marked * (Alternaria solani; tomato early blight, rating marked with asterisk (*), meaning not given): 85* %
Test J rating (% disease control), marked * ([2]; wheat powdery mildew, rating marked with asterisk (*), meaning not given): 100* %
Test F rating (% disease control), marked * (Septoria nodorum; Septoria glume blotch, rating marked with asterisk (*), meaning not given): 60* %
Test H rating (% disease control), marked * ([3]; wheat leaf rust, curative, rating marked with asterisk (*), meaning not given): 100* %

Cc1nn(C)c(C(O)c2ccc(F)cc2F)c1-c1ccc(F)cc1Cl (stereo not drawn) [Compound 351, 4-(2-chloro-4-fluorophenyl)-α-(2,4-difluorophenyl)-1,3-dimethyl-1H-pyrazole-5-methanol]
pest or weed control at 200 µg/mL [1, 4]: 100%
pest or weed control at 200 µg/mL (Botrytis cinerea; [5]): 100%
pest or weed control at 200 µg/mL (Alternaria solani; [6]): 99%
pest or weed control at 200 µg/mL [2, 7]: 99%
pest or weed control at 200 µg/mL (Septoria nodorum; [8]): 92%
pest or weed control at 200 µg/mL [3, 9]: 96%

Cc1nn(C)c(Nc2c(F)cc(Cl)cc2Cl)c1-c1ccc(F)cc1Cl [Compound 367, 4-(2-chloro-4-fluorophenyl)-N-(2,4-dichloro-6-fluorophenyl)-1,3-dimethyl-1H-pyrazol-5-amine]
pest or weed control at 200 µg/mL [1, 4]: 100%
pest or weed control at 200 µg/mL (Botrytis cinerea; [5]): 100%
pest or weed control at 200 µg/mL (Alternaria solani; [6]): 100%
pest or weed control at 200 µg/mL [2, 7]: 100%
pest or weed control at 200 µg/mL (Septoria nodorum; [8]): 100%
pest or weed control at 200 µg/mL [3, 9]: 100%

Cc1nn(C)c(Nc2c(Cl)cc(F)cc2Cl)c1-c1ccc(F)cc1Cl [Compound 369, 4-(2-chloro-4-fluorophenyl)-N-(2,6-dichloro-4-fluorophenyl)-1,3-dimethyl-1H-pyrazol-5-amine]
pest or weed control at 200 µg/mL [1, 4]: 100%
pest or weed control at 200 µg/mL (Botrytis cinerea; [5]): 100%
pest or weed control at 200 µg/mL (Alternaria solani; [6]): 66%
pest or weed control at 200 µg/mL [2, 7]: 99%
pest or weed control at 200 µg/mL (Septoria nodorum; [8]): 0%
pest or weed control at 200 µg/mL [3, 9]: 17%

Cc1nn(C)c(Nc2ccc(Cl)c(F)c2)c1-c1c(F)cc(F)cc1F [compound 14]
Test I rating (% disease control) [1, 10]: 99%
Test B rating (% disease control) (Botrytis cinerea; [11]): 98%
Test G rating (% disease control) (Septoria tritici): 99%
Test C rating (% disease control) (Alternaria solani; [12]): 0%
Test J rating (% disease control) [2, 13]: 98%
Test F rating (% disease control) (Septoria nodorum; [14]): 0%

COc1ccc(-c2c(C)nn(C)c2Oc2ccc(Cl)cc2)c(F)c1 [compound 15]
Test I rating (% disease control) [1, 10]: 98%
Test B rating (% disease control) (Botrytis cinerea; [11]): 99%
Test G rating (% disease control) (Septoria tritici): 99%
Test C rating (% disease control) (Alternaria solani; [12]): 67%
Test J rating (% disease control) [2, 13]: 99%
Test F rating (% disease control) (Septoria nodorum; [14]): 73%

COc1ccc(Oc2c(-c3ccc(F)cc3Cl)c(C)nn2C)c(F)c1 [compound 21]
Test I rating (% disease control) [1, 10]: 100%
Test B rating (% disease control) (Botrytis cinerea; [11]): 98%
Test C rating (% disease control) (Alternaria solani; [12]): 100%
Test J rating (% disease control) [2, 13]: 99%
Test F rating (% disease control) (Septoria nodorum; [14]): 97%

Cc1nn(C)c(Nc2ccc(Cl)c(Cl)c2)c1-c1c(F)cc(C#N)cc1F [compound 123]
Test I rating (% disease control) [1, 10]: 80%
Test B rating (% disease control) (Botrytis cinerea; [11]): 99%
Test G rating (% disease control) (Septoria tritici): 99%
Test C rating (% disease control) (Alternaria solani; [12]): 0%
Test J rating (% disease control) [2, 13]: 0%
Test F rating (% disease control) (Septoria nodorum; [14]): 40%

Cc1ccc(Nc2c(-c3c(F)cc(C#N)cc3F)c(C)nn2C)cc1 [compound 124]
Test I rating (% disease control) [1, 10]: 96%
Test B rating (% disease control) (Botrytis cinerea; [11]): 100%
Test G rating (% disease control) (Septoria tritici): 99%
Test C rating (% disease control) (Alternaria solani; [12]): 78%
Test J rating (% disease control) [2, 13]: 94%
Test F rating (% disease control) (Septoria nodorum; [14]): 60%

Cc1nn(C)c(Nc2ccc(Cl)c(F)c2)c1-c1c(F)cc(C#N)cc1F [compound 125]
Test I rating (% disease control) [1, 10]: 92%
Test B rating (% disease control) (Botrytis cinerea; [11]): 100%
Test G rating (% disease control) (Septoria tritici): 99%
Test C rating (% disease control) (Alternaria solani; [12]): 67%
Test J rating (% disease control) [2, 13]: 0%
Test F rating (% disease control) (Septoria nodorum; [14]): 60%

COc1cccc(Nc2c(-c3ccc(F)cc3F)c(C)nn2C)c1Cl [compound 281]
Test I rating (% disease control) [1, 15]: 94%
Test B rating (% disease control) (Botrytis cinerea; [16]): 98%
Test C rating (% disease control) (Alternaria solani; [17]): 44%
Test J rating (% disease control) [2, 18]: 98%
Test F rating (% disease control) (Septoria nodorum; [19]): 0%
Test H rating (% disease control) ([3]; wheat leaf rust, curative): 0%

COc1ccc(-c2c(C)nn(C)c2Nc2ccc(Cl)cc2Cl)c(Cl)c1 [compound 282]
Test I rating (% disease control) [1, 15]: 99%
Test B rating (% disease control) (Botrytis cinerea; [16]): 99%
Test C rating (% disease control) (Alternaria solani; [17]): 98%
Test J rating (% disease control) [2, 18]: 100%
Test F rating (% disease control) (Septoria nodorum; [19]): 0%
Test H rating (% disease control) ([3]; wheat leaf rust, curative): 0%

Cc1nn(C)c(Nc2ccc(Cl)cc2Cl)c1-c1c(F)cccc1Cl [compound 283]
Test I rating (% disease control) [1, 15]: 99%
Test B rating (% disease control) (Botrytis cinerea; [16]): 99%
Test C rating (% disease control) (Alternaria solani; [17]): 65%
Test J rating (% disease control) [2, 18]: 100%
Test F rating (% disease control) (Septoria nodorum; [19]): 0%
Test H rating (% disease control) ([3]; wheat leaf rust, curative): 9%

Cc1nn(C)c(Oc2ccc(C#N)cc2Cl)c1-c1ccc(F)cc1Br [compound 285]
Test I rating (% disease control) [1, 15]: 99%
Test B rating (% disease control) (Botrytis cinerea; [16]): 98%
Test C rating (% disease control) (Alternaria solani; [17]): 0%
Test J rating (% disease control) [2, 18]: 99%
Test F rating (% disease control) (Septoria nodorum; [19]): 60%
Test H rating (% disease control) ([3]; wheat leaf rust, curative): 9%
